According to US20030065292A1, “Ozonated medical devices and methods of using ozone to prevent complications from indwelling medical devices” (priority 2001, published 2003):

Experiments:
[1] = system: Escherichia coli strain 2131; assay: Ozone killing of microorganisms on catheter surfaces; format: cell-based
Procedure: A clinical isolate of Escherichia coli strain 2131 that had caused catheter-related infection was used. The organism was grown overnight in tryptic soy broth (TSB) at 37° C., then diluted to a concentration of 10^4 cfu/ml of TSB. The lumens of four 7-french, 20 -cm, triple-lumen polyurethane central venous catheters were filled with this working bacterial suspension and the catheters were then incubated at 25° C. for 4 hours. After draining the bacterial suspension from the lumens of catheters, the lumens were flushed with 1 ml of sterile normal saline. Using a closed dynamic flow system, the lumens of the four catheters were continually perfused for 4 hours at 25° C. with a recirculating total volume of 3 ml of sterile normal saline at a flow rate of 0.1 ml/minute. Ozone was continuously bubbled into the beaker containing the saline perfusing the lumens of two catheters (experimental arm), but no ozone was bubbled into the beaker containing the saline perfusing the lumens of the other two catheters (control arm). Four hours later, two 2 -cm segments from each of the four catheters (two in the experimental arm, and two in the control arm) were cultured onto blood agar plates using the sonication technique. Samples of the saline running through the experimental and control catheters were also inoculated onto blood agar plates. Colony counts were determined at 24 hours after incubation of the agar plates at 37° C. The following table summarizes the results of cultures of catheter segments: […]

[2] = system: Escherichia coli strain 2131; assay: Ozone killing of microorganisms in solution; format: cell-based; conditions: 25° C.
Procedure: A clinical isolate of Escherichia coli strain 2131 that had caused catheter-related infection was used. The organism was grown overnight in tryptic soy broth (TSB) at 37° C., then diluted to a concentration of 10^4 cfU/ml of normal saline. A 120 ml aliquot of the 10^4 cfU/ml working bacterial suspension was placed in each of two beakers at 25° C.: (1) In the experimental arm, ozone was bubbled into the bacterial suspension; (2) In the control arm, no ozone was bubbled. Four hours later, three samples of the bacterial suspension in each beaker and serial dilutions were inoculated onto blood agar plates. Colony counts were determined at 24 hours after incubation of the agar plates at 37° C. The following table summarizes the results of cultures: […]

O=[O+][O-] [ozone]
Number of E. coli colony forming units cultured from 2-cm catheter segments ([1]; experimental arm: catheter lumens perfused 4 hours at 25° C. with saline continuously bubbled with ozone, sonication technique): 0 colony forming units
Ozone killing of E. coli adhered to catheter surface (result in words) ([1]; lumens perfused 4 hours with ozone-bubbled saline): kills E. coli that has adhered to the catheter surface
Concentration of E. coli in the saline solution used to perfuse the infected lumens of catheters ([1]; ozone-bubbled saline after 4 hours perfusion, control 42×10^2 cfu/ml): 9×10^2 cfu/ml
Number of E. coli colony forming units per ml (cfu/ml) ([2]; experimental arm: ozone bubbled into 10^4 cfu/ml bacterial suspension in normal saline, sampled four hours later, colony counts at 24 hours): 0 cfu/ml
Ozone killing of E. coli in solution (result in words) ([2]; ozone bubbled into bacterial suspension, 4 hours): kills E. coli in solution
